We go through 27 molecules from US11498903B2 (BRISTOL-MYERS SQUIBB COMPANY, priority 2017, dated 2022).

Where two headings read alike, the source gives them in different places.

For this test, the target named is T1, human APJ receptor (Homo sapiens, UniProt P35414).
T1 construct: expressed in transfected cells
T1 sequence (P35414 1-380): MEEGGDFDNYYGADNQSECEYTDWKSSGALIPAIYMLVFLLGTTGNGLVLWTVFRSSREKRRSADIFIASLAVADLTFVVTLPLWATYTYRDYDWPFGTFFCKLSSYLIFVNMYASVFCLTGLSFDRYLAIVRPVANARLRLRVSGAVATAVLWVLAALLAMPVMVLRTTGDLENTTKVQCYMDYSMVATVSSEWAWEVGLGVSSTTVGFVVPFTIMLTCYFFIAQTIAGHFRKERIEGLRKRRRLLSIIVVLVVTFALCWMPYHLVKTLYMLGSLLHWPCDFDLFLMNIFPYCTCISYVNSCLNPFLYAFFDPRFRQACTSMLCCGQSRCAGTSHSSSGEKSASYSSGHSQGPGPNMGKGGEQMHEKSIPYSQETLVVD
The experiment in a line: Intracellular cAMP accumulation assay (APJ hcAMP, HTRF). It is filed as cell-based. The method in brief:
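Inhibition of 2 μM forskolin-driven cAMP ([…] present) measured by HTRF in 5,000 HEK293 cells/well stably expressing human APJ, 30 min, room temperature. EC50 came from a variable-slope sigmoidal fit; Ymax was relative to (Pyr1)apelin-13 set at 100%.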
Background: Cyclic AMP is a second messenger, typically raised through Gs and lowered through Gi signalling.

Setting [1] is: Table 1, HEK293 cells stably expressing human APJ receptor, inhibition of forskolin-mediated cAMP production, read-out: APJ hcAMP EC50.
[2] abbreviates: Table 2, HEK293 cells stably expressing human APJ receptor, read-out: APJ cAMP Human EC50.
Where [3] appears, read: human APJ, cAMP, potency range class, read-out: APJ cAMP Human EC50.
Where [4] appears, read: Table 3, HEK293 cells stably expressing human APJ receptor, read-out: APJ cAMP Human EC50.

As for `CCC[C@@H](NC(=O)c1ccc(-c2cc(F)ccc2-c2nc3ccccc3[nH]2)c(C(=O)O)c1)c1ccccc1` [Example 33, 2′-(1H-1,3-benzodiazol-2-yl)-5′-fluoro-4-{[(1R)-1-phenylbutyl]carbamoyl}-[1,1′-biphenyl]-2-carboxylic acid], the EC50 (usually the concentration needed to bring the measured effect to its halfway point) was under 0.01 µM under setting [1] and under 0.01 µM under setting [2].
With `O=C(NC(CC1CCOCC1)c1ccccc1)c1ccc(-c2cc(Cl)ccc2-c2nc3ccccc3[nH]2)c(C(=O)O)c1` (centres unmarked) [Example 217, 2′-(1H-1,3-benzodiazol-2-yl)-5′-chloro-4-{[2-(oxan-4-yl)-1-phenylethyl]carbamoyl}-[1,1′-biphenyl]-2-carboxylic acid], the EC50 under setting [1] lay within 0.101 to 0.5 µM.
Consider `CCC[C@@H](NC(=O)c1ccc(-c2cc(Cl)ccc2-c2nc3ccncc3[nH]2)c(C(=O)O)c1)c1ccccc1` [Example 24, 5′-chloro-2′-{1H-imidazo[4,5-c]pyridin-2-yl}-4-{[(1R)-1-phenylbutyl]carbamoyl}-[1,1′-biphenyl]-2-carboxylic acid], for which the concentration giving a half-maximal response (EC50) is 0.01 to 0.1 µM under setting [1] and 0.01 to 0.1 µM under setting [2].
Take `CCCC(NC(=O)c1ccc(-c2c(Cl)cccc2-c2nc3ccccc3[nH]2)c(C(=O)O)c1)c1cccc(F)c1` (single isomer, unassigned) [Example 171]: the EC50 by setting is: under setting [1], under 0.01 µM; under setting [3], under 0.01 µM.
`COc1cc2nc(-c3cccc(Cl)c3-c3ccc(C(=O)NC(C4CCCCC4)C4CC4)cc3C(=O)O)[nH]c2cc1F` (single isomer, unassigned) [Example 235]: the EC50 is under 0.01 µM under setting [1] and under 0.01 µM under setting [3].
On to `COc1cc2[nH]c(-c3cccc(Cl)c3-c3ccc(C(=O)NCCCN(C)C)cc3C(=O)O)nc2cc1F` [Example 122, (S)-2′-chloro-4-{[3-(dimethylamino)propyl]carbamoyl}-6′-(5-fluoro-6-methoxy-1H-1,3-benzodiazol-2-yl)-[1,1′-biphenyl]-2-carboxylic acid], for which the EC50 by setting is: under setting [1], 0.01 to 0.1 µM; under setting [4], 0.01 to 0.1 µM.
With `CCCC(NC(=O)c1ccc(-c2c(Cl)cccc2-c2nc3cc(Cl)c(F)cc3[nH]2)c(C(=O)O)c1)c1c(C)cc(C)cc1C` (single isomer, unassigned) [Example 201], the EC50 reads like this: under setting [1], under 0.01 µM; under setting [3], under 0.01 µM.
As for `O=C(NC(c1ccccc1)C1CC1)c1ccc(-c2c(Cl)cccc2-c2nc3ccccc3[nH]2)c(C(=O)O)c1` (single isomer, unassigned) [Example 220], the EC50 is under 0.01 µM under setting [1] and under 0.01 µM under setting [3].
For the molecule `CCC[C@H](NC(=O)c1ccc(-c2c(Cl)cccc2-c2nc3ccccc3[nH]2)c(C(=O)O)c1)c1cccc(Cl)c1` (single isomer, unassigned) [Example 185], the EC50 under setting [1] was under 0.01 µM and the EC50 under setting [3] is under 0.01 µM.
As to `COC[C@@H](NC(=O)c1ccc(-c2ccccc2-c2nc3ccccc3[nH]2)c(C(=O)O)c1)c1ccccc1` [Example 66, 2′-(1H-1,3-benzodiazol-2-yl)-4-{[(1S)-2-methoxy-1-phenylethyl]carbamoyl}-[1,1′-biphenyl]-2-carboxylic acid], the EC50 was in the range of 0.01 to 0.1 µM under setting [1] and 0.01 to 0.1 µM under setting [2].
In the case of `CCCC(NC(=O)c1ccc(-c2c(Cl)cccc2-c2nc3ccccc3[nH]2)c(C(=O)O)c1)c1cncs1` (single isomer, unassigned) [Example 186], the EC50 under setting [1] is under 0.01 µM and the EC50 under setting [3] was under 0.01 µM.
With `CCC[C@H](NC(=O)c1ccc(-c2c(Cl)cccc2-c2nc3cc(Cl)c(F)cc3[nH]2)c(C(=O)O)c1)c1ccc(Cl)cc1OC` (single isomer, unassigned) [Example 200], the EC50 under setting [1] was under 0.01 µM and the EC50 under setting [3] is under 0.01 µM.
`CCC[C@@H](NC(=O)c1ccc(-c2cc(F)ccc2-c2nc3cc(OC)ccc3[nH]2)c(C(=O)O)c1)c1ccccc1` [Example 36, 5′-fluoro-2′-(5-methoxy-1H-1,3-benzodiazol-2-yl)-4-{[(1R)-1-phenylbutyl]carbamoyl}-[1,1′-biphenyl]-2-carboxylic acid]: the EC50 is under 0.01 µM under setting [1] and under 0.01 µM under setting [2].
As for `CCC[C@@H](NC(=O)c1ccc(-c2cc(Cl)ccc2-c2nc3cc(C)ccc3[nH]2)c(C(=O)O)c1)c1ccccc1` [Example 14, 5′-chloro-2′-(5-methyl-1H-1,3-benzodiazol-2-yl)-4-{[(1R)-1-phenylbutyl]carbamoyl}-[1,1′-biphenyl]-2-carboxylic acid], the EC50 was under 0.01 µM under setting [1] and under 0.01 µM under setting [2].
Consider `CCC[C@@H](NC(=O)c1ccc(-c2cc(Cl)ccc2-c2nc3c(O)cccc3[nH]2)c(C(=O)O)c1)c1ccccc1` [Example 20, 5′-chloro-2′-(4-hydroxy-1H-1,3-benzodiazol-2-yl)-4-{[(1R)-1-phenylbutyl]carbamoyl}-[1,1′-biphenyl]-2-carboxylic acid], for which the EC50 is, setting by setting: under setting [1], under 0.01 µM; under setting [2], under 0.01 µM.
In the case of `CCC[C@@H](NC(=O)c1ccc(-c2cc(Cl)ccc2-c2nc3c(F)cccc3[nH]2)c(C(=O)O)c1)c1ccccc1` [Example 17, 5′-chloro-2′-(4-fluoro-1H-1,3-benzodiazol-2-yl)-4-{[(1R)-1-phenylbutyl]carbamoyl}-[1,1′-biphenyl]-2-carboxylic acid], the EC50 was under 0.01 µM under setting [1] and under 0.01 µM under setting [2].
For the molecule `CCC[C@@H](NC(=O)c1ccc(-c2c(Cl)cccc2-c2nc3cccc(O)c3[nH]2)c(C(=O)O)c1)c1ccccc1` (atropisomer, axis not shown) [Example 99, (S)-2′-chloro-6′-(7-hydroxy-1H-1,3-benzodiazol-2-yl)-4-{[(1R)-1-phenylbutyl]carbamoyl}-[1,1′-biphenyl]-2-carboxylic acid], the EC50 is, setting by setting: under setting [1], 0.01 to 0.1 µM; under setting [4], 0.01 to 0.1 µM.
For `O=C(N[C@H](CN1CCOCC1)c1ccccc1)c1ccc(-c2cc(Cl)ccc2-c2nc3ccccc3[nH]2)c(C(=O)O)c1` [Example 5, (S)-2′-(1H-benzo[d]imidazol-2-yl)-5′-chloro-4-((2-morpholino-1-phenylethyl)carbamoyl)-[1,1′-biphenyl]-2-carboxylic acid], the EC50 fell in the range of 0.01 to 0.1 µM under setting [1] and 0.01 to 0.1 µM under setting [2].
Take `CCC[C@@H](NC(=O)c1ccc(-c2cc(Cl)ccc2-c2nc3cc(Cl)ccc3[nH]2)c(C(=O)O)c1)c1ccccc1` [Example 47, 5′-chloro-2′-(5-chloro-1H-1,3-benzodiazol-2-yl)-4-{[(1R)-1-phenylbutyl]carbamoyl}-[1,1′-biphenyl]-2-carboxylicacid]: the EC50 is, setting by setting: under setting [1], under 0.01 µM; under setting [2], under 0.01 µM.
For `CCC[C@@H](NC(=O)c1ccc(-c2cc(OC)ccc2-c2nc3cc(C(C)(C)C)ccc3[nH]2)c(C(=O)O)c1)c1ccccc1` [Example 61, 2′-(5-tert-butyl-1H-1,3-benzodiazol-2-yl)-5′-methoxy-4-{[(1R)-1-phenylbutyl]carbamoyl}-[1,1′-biphenyl]-2-carboxylic acid], the EC50 reads like this: under setting [1], under 0.01 µM; under setting [2], under 0.01 µM.
Regarding `CCC[C@H](NC(=O)c1ccc(-c2c(Cl)cccc2-c2nc3cc(F)c(Cl)cc3[nH]2)c(C(=O)O)c1)c1ccc(Cl)cc1` (single isomer, unassigned) [Example 239], the EC50 was under 0.01 µM under setting [1] and under 0.01 µM under setting [3].
`COc1ccc(NC(=O)c2ccc(-c3c(Cl)cccc3-c3nc4cc(F)c(OC)cc4[nH]3)c(C(=O)O)c2)cc1` [Example 125, (S)-2′-chloro-6′-(5-fluoro-6-methoxy-1H-1,3-benzodiazol-2-yl)-4-[(4-methoxyphenyl)carbamoyl]-[1,1′-biphenyl]-2-carboxylic acid]: the EC50 reads like this: under setting [1], 0.01 to 0.1 µM; under setting [4], 0.01 to 0.1 µM.
In the case of `CCCC(NC(=O)c1ccc(-c2c(Cl)cccc2-c2nc3ccccc3[nH]2)c(C(=O)O)c1)c1ccccc1OC` [Example 225, (S)-2′-(1H-1,3-benzodiazol-2-yl)-6′-chloro-4-{[1-(2-methoxyphenyl)butyl]carbamoyl}-[1,1′-biphenyl]-2-carboxylic acid], the EC50 runs as follows: under setting [1], under 0.01 µM; under setting [3], under 0.01 µM.
As to `CCC[C@@H](NC(=O)c1ccc(-c2cc(Cl)ccc2-c2nc3ccccc3[nH]2)c(-c2n[nH]c(=O)o2)c1)c1ccccc1` [Example 9], the EC50 lay within 0.01 to 0.1 µM under setting [1] and 0.01 to 0.1 µM under setting [2].
`CCC[C@@H](NC(=O)c1ccc(-c2c(C)cccc2-c2nc3cc(C(C)(C)C)ccc3[nH]2)c(C(=O)O)c1)c1ccccc1` [Example 144, 2′-(5-tert-butyl-1H-1,3-benzodiazol-2-yl)-6′-methyl-4-{[(1R)-1-phenylbutyl]carbamoyl}-[1,1′-biphenyl]-2-carboxylic acid]: the EC50 under setting [1] was under 0.01 µM and the EC50 under setting [4] was under 0.01 µM.
On to `COC[C@@H](NC(=O)c1ccc(-c2c(Cl)cccc2-c2nc3ccccc3[nH]2)c(C(=O)O)c1)C1CC1` [Example 230, (S)-2′-(1H-1,3-benzodiazol-2-yl)-6′-chloro-4-[(1-cyclopropyl-2-methoxyethyl)carbamoyl]-[1,1′-biphenyl]-2-carboxylic acid], for which the EC50 lay in the range of 0.101 to 0.5 µM under setting [1] and 0.101 to 0.5 µM under setting [3].
As for `CCC[C@@H](NC(=O)c1ccc(-c2cc(Cl)ccc2-c2nc3c(ccc4ccccc43)[nH]2)c(C(=O)O)c1)c1ccccc1` [Example 25, 5′-chloro-2′-{3H-naphtho[1,2-d]imidazol-2-yl}-4-{[(1R)-1-phenylbutyl]carbamoyl}-[1,1′-biphenyl]-2-carboxylic acid], the EC50 was 0.01 to 0.1 µM under setting [1] and 0.01 to 0.1 µM under setting [2].
